The test system of data set [1] is Caco-2 cell monolayers. The experiment in a line: Trans-epithelial electrical resistance (TEER) of Caco-2 monolayers after apical peptide application. The class given is cell-based, human. The settings on record: for Efficacy at 5 mM (TEER reduction): apical application to Caco-2 cell monolayers. The procedure:
An immortalized human intestinal epithelial cell line (Caco-2) were maintained in DMEM/F12 medium (Gibco, Paisley, UK) supplemented with 10% FBS, 2 mM L-glutamine (Gibco) 100 U/ml penicillin and 100 μg/ml streptomycin (Gibco). Caco-2 cells were seeded at a density of 7×10^4/well on Transwell™ (Corning, N.Y.) polyester membrane filters (12 mm diameter, 0.4 μm pore size). Re-feeding with DMEM (Life Technologies, Paisley, UK) was carried out every second day. Caco-2 monolayers with trans-epithelial electrical resistance (TEER)>350 Ω·cm2 were considered confluent and used in transport assays; fixed paddle electrodes were used to measure TEER (World Precision Instruments, UK).
(§1) Apical to basal flux of 50 mg/ml 4 kDa dextran or 50 mg/ml 70 kDa dextran (Sigma) was performed to assess the impact of PIP peptides on paracellular permeability. Apical compartment volume was 200 μl; at set times the 600 μl basal compartment volume was collected and replaced with fresh HBSS. Apical and basal compartment fluorescence was determined using a Floustar Omega microplate reader (BMG Labtech, Ortenburg, Germany). TEER measurements were made for each well immediately after HBSS replacement. After 3 hr, the apical compartment dextran and peptide solution was removed and replaced with PBS and TEER values were recorded for a further 30 min to assess monolayer recovery.
(§2) TEER values were calculated by subtracting blank filter reading and normalized as a percentage of the initial TEER value for that monolayer. Fluorescent dextran flux used to calculate paracellular permeability was performed as previously described. Blood glucose levels were expressed as a percentage of the baseline glucose levels for each animal. Data were compared to control values using a two-tailed, un-paired Student's T-test.
Peptides were applied apically at a concentration of 5 mM to confluent monolayers of Caco-2 cells grown on semi-permeable inserts (Rubus et al. (1996) J. Pharma. Sci 85:165-169) to assess their ability to affect TJ function (Peterson & Mooseker (1992) J. Cell. Sci. 102(3):581-600). RRVEVKYDRR (peptide #6; peptide 640, SEQ ID NO: 3) reduced the trans-epithelial electrical resistance (TEER) of Caco-2 monolayers with a drop of 50% within 25 min of addition (FIG. 4), and none of the peptides were toxic at this concentration according to MTT assay (Mosman (1983) J. Immunol. Methods 65:55-63). Critically, following gentle washing, RRVEVKYDRR (SEQ ID NO: 3)-treated Caco-2 monolayers TEER values recovered to 80% of their original values within 24 h. A lead candidate, peptide NH2-rrdykvevrr-NH2, (SEQ ID NO: 20) was identified based on the RRVEVKYDRR (SEQ ID NO: 3) sequence but using the retro-inverso configuration with D-configuration amino acids.

Data set [2] in a line: Blood glucose after SC or intraluminal intestinal (ILI) injection of insulin with PIP peptides. The class given is in vivo, rat. The procedure: Male Wistar rats, bred in house, were 225-275 g (approximately 6-8 weeks old) when placed on study. Rats were housed in groups of 3-5 per cage in a 12/12 hr light/dark cycle. All experiments were conducted during the light phase and carried out using a non-recovery protocol that used continuous isoflurane anesthesia. A 4-5 cm midline abdominal incision was made to expose mid-jejunum to early ileum regions of the small intestine and to provide access to the portal vein for the insertion of a cannula. Solutions of insulin (human recombinant; Sigma) and PIP peptides were prepared in 0.9% saline containing 10 mM citric acid to reduce local proteolysis and mixed 1:1 before injection using a 29-gauge hypodermic needle in a volume of 200 μL/kg (or ˜50 μL, per 250 g rat). The injection site was marked with a permanent marker. The incision was closed with surgical glue. Blood draws were taken from the portal vein as well as systemic circulation over the next two hours to monitor glucose, serum insulin and endotoxin. Control treatment groups included SC injection of insulin […] as well as intestinal injection of PIP peptide without insulin or insulin alone in the phosphate buffered saline (PBS) formulation used for all groups. At the end of a study, a 3-5 mm region about the marked intestine segment was isolated. This tissue was lysed for biochemical assessment of MLC phosphorylation state or fixed, sectioned, and stained with hematoxylin/eosin prior to analysis read by a licensed veterinary pathologist. Subcutaneous (SC) insulin injections (20 μl/kg) were performed in the mid-scapular region and blood glucose was measured in the same manner. All experiments were performed in accordance with the U.K. Animals (Scientific Procedures) Act of 1986, the European Communities Council Directive of 1986 (86/609/EEC), and the University of Bath's ethical review procedures.
as §2

Data set [3] relates to myosin light chain (MLC) phosphorylated at Ser19. Nature of the data set: PhosphoMLC analysis (Western blot) of intestinal tissue after ILI injection. The settings on record: 20 mM peptide. The format is in vivo, rat. As for the experimental part: After rinsing with ice cold PBS, Caco-2 monolayers or epithelial cells from isolated intestinal tissue were lysed in 3 μL of a protease inhibitor cocktail and 200 μL RIPA buffer and left on ice for 10 min. Isolated intestinal tissue was similarly placed in ice cold PBS for 15 min prior to maceration in a protease inhibitor cocktail and RIPA buffer, being left on ice for 10 min. All cell and tissues lysates were centrifuged at 8000 rpm for 15 min to collect the supernatant, which was stored at −80° C. until use. For Western blots analysis, lysates were separated by SDS-PAGE (12%) run at 220V for 40 min and electro-transferred onto a PDVF membrane at 30V for 70 min using an XCell™ Blot module (Invitrogen). Membranes were blocked using 5% bovine serum albumin in TBS-T (2 M Tris, HCl, pH 7.5, 4 M NaCl and 0.1% Tween 20) for 1 hr. Membranes were washed with water, incubated with primary antibody (anti-myosin light chain (phospho S20) antibody or anti-myosin light chain 2) antibody overnight at 5° C., washed thrice with TBS-T, and then incubated with secondary horseradish […] (HRP)-coupled antibody for 1 hr at room temperature. After washing thrice in TBS-T, HRP activity was detected by ECL (Santa Cruz).
After rinsing with ice cold PBS to remove PIP peptide or control treatment agents, isolated intestinal tissue was placed in ice cold PBS for 15 min prior to addition of 25 μl protease inhibitor cocktail (Fisher), 25 μl phosphatase inhibitor cocktail (Fisher) and 500 μl RIPA buffer (Sigma Aldrich). After 10 min on ice lysates were centrifuged at 8000 rpm for 15 min to collect the supernatant, which was stored at −80° C. until use. For Western blots analysis, lysates were separated by SDS-PAGE (12%) run at 220V for 40 min and electro-transferred onto a PDVF membrane at 30V for 70 min using an XCell™ Blot module (Invitrogen). Membranes were blocked using 5% bovine serum albumin in TBS-T (2 M Tris HCl, pH 7.5, 4 M NaCl and 0.1% Tween 20) for 1 h. Membranes were washed with water, incubated with primary antibody (anti-myosin light chain (phospho S19) antibody (Cell Signalling Technologies) or anti-myosin light chain 2 antibody (Abcam) overnight at 5° C., washed thrice with TBS-T, and then incubated with secondary horseradish […] (HRP)-coupled antibody for 1 h at room temperature. After washing thrice in TBS-T, HRP activity was detected by ECL (Santa Cruz).

In another data set the test system is Caco-2 monolayers. Nature of the data set: Apical to basal flux of fluorescent dextran (4 kDa, 70 kDa) across Caco-2 monolayers. The class given is cell-based, human. To be noted: for transport of paracellular marker 4 kDa fluorescent dextran (4FD): relative to control peptide, FIG. 5. As for the experimental part:
as §1, §2
(In general: Passage across Caco-2 layers is used to estimate intestinal permeability.)

Data set [4] relates to Caco-2 cells.
Method: (§3) MTT assay: Cell viability was assessed using the 3-(4,5-dimethylthiazol-2-yl)-2,5-diphenyl tetrazolium bromide (MTT; Invitrogen, Paisley, UK) assay. Following exposure of cells to CPP complexes for 72 hours, 0.5 mg/ml MTT was added to the culture medium and incubated with the cells for a further 3 hours. Media was then removed and replaced with DMSO to lyse the cells. Absorbance was then recorded at 550 nm.
In data set [5] the test system is Caco-2 cell monolayers. Nature of the data set: Trans-epithelial electrical resistance (TEER) of Caco-2 monolayers after apical peptide application. To be noted: FIG. 6; for TEER after peptide removal: fresh media to apical compartment after 180 min exposure. The class given is cell-based, human.
Data set [6] concerns Caco-2 cells. Nature of the data set: Cell viability / cytotoxicity, MTT assay.
Method: as §3

Like-named read-outs stand apart in the source and are kept apart here.

Consider “NH2-RRK TVKYDRR-NH2 (H-RRKTVKYDRR-NH2) [compound 5]”, for which the “Efficacy at 5 mM (TEER reduction)” value in the data set with Caco-2 cell monolayers [1] (5 mM) is “No”.

In the case of NH2-RRV EVKYDRR-NH2 [peptide 640], in data set [2] (ILI of 30 IU/kg insulin plus 10 mM peptide), the “blood glucose change profile” value is listed as “much delayed decrease”. The entries for the “MLC phosphorylation ratio (MLC to pMLC)” value in data set [3] (15 min), in data set [3] (45 min) and in data set [3] (90 min) were “significantly increased”, “remained elevated” and “returning to initial levels”, respectively. Further, in the data set on Caco-2 cell monolayers [1] (5 mM apical, within 25 min of addition), the “drop of TEER” value stood at 50%. Also, in the data set on Caco-2 cell monolayers [1] (5 mM), the “Efficacy at 5 mM (TEER reduction)” value is recorded as “Yes”. In the data set on Caco-2 cell monolayers [1] (5 mM, FIG. 5), the “TEER decrease to % of its initial value” was about 50%. Besides, in the data set with Caco-2 cell monolayers [1] (5 mM, after 180 min of exposure), the “loss in TEER” value was about 50%. The “TEER recovery, % of original values” with Caco-2 cell monolayers [1] (after gentle washing, within 24 h) was 80%. Moreover, the “permeability of 4 kDa dextran” value with Caco-2 monolayers (5 mM) is recorded as “failed to affect”. Besides, the “transport of paracellular marker 4 kDa fluorescent dextran (4FD)” value with Caco-2 monolayers (5 mM) is given as “increased transport of a paracellular marker relative to the control”. Also, the “increase of rate of 4 kDa dextran permeation” value in the data set on Caco-2 monolayers (10 mM apical) was about 3 fold. Moreover, the “flux of 70 kDa dextran” value in the data set on Caco-2 monolayers (concentration not given) was “failed to affect”. In addition, the “cell viability (mitochondrial membrane polarity marker MTS)” value in the data set with Caco-2 cells [4] is listed as “did not affect cell viability”. Further, the “TEER after peptide removal” value in the data set with Caco-2 cell monolayers [5] is “rapid reversal of TEER depression”.

As to “NH2-RRV TVKYDRR-NH2 (H-RRVTVKYDRR-NH2) [peptide 1]”, the “Efficacy at 5 mM (TEER reduction)” value in the data set on Caco-2 cell monolayers [1] (5 mM) is “No”.

On to “NH2-RRV TVKYKRR-NH2 (H-RRVTVKYKRR-NH2) [compound 3]”, for which, in the data set with Caco-2 cell monolayers [1] (5 mM), the “Efficacy at 5 mM (TEER reduction)” value is recorded as “No”.

In the case of “NH2-RRVpTVKYDRR-NH2 (RRVTVKYDRR; HELM PEPTIDE1{R.R.V.[C[C@@H](OP(=O)(O)O)[C@H](N[*:1])C(=O)[*:2]].V.K.Y.D.R.R.[am]}$$$$V2.0; SMILES CC(C)[C@H](NC(=O)[C@H](CCCNC(=N)N)NC(=O)[C@@H](N)CCCNC(=N)N)C(=O)N[C@H](C(=O)N[C@H](C(=O)N[C@@H](CCCCN)C(=O)N[C@@H](Cc1ccc(O)cc1)C(=O)N[C@@H](CC(=O)O)C(=O)N[C@@H](CCCNC(=N)N)C(=O)N[C@@H](CCCNC(=N)N)C(N)=O)C(C)C)[C@@H](C)OP(=O)(O)O) [peptide 2]”, in the data set with Caco-2 cell monolayers [1] (5 mM), the “Efficacy at 5 mM (TEER reduction)” value is “No”.

For “NH2-RRVpTVKYKRR-NH2 (RRVTVKYKRR; HELM PEPTIDE1{R.R.V.[C[C@@H](OP(=O)(O)O)[C@H](N[*:1])C(=O)[*:2]].V.K.Y.K.R.R.[am]}$$$$V2.0; SMILES CC(C)[C@H](NC(=O)[C@H](CCCNC(=N)N)NC(=O)[C@@H](N)CCCNC(=N)N)C(=O)N[C@H](C(=O)N[C@H](C(=O)N[C@@H](CCCCN)C(=O)N[C@@H](Cc1ccc(O)cc1)C(=O)N[C@@H](CCCCN)C(=O)N[C@@H](CCCNC(=N)N)C(=O)N[C@@H](CCCNC(=N)N)C(N)=O)C(C)C)[C@@H](C)OP(=O)(O)O) [compound 4]”, in the data set on Caco-2 cell monolayers [1] (5 mM), the “Efficacy at 5 mM (TEER reduction)” value is “No”.

With “RKAKYQYRRK (drug delivery enhancement peptide) [peptide 250]”, the “cell viability (mitochondrial membrane polarity marker MTS)” value in the data set on Caco-2 cells [6] (concentrations that modulated TEER and paracellular permeability) is given as “did not affect cell viability”. In addition, in the data set on Caco-2 cells [6] (data not shown), the “cytotoxicity using the MTT assay” value is reported as “lack of cytotoxicity”. Besides, the blood sugar recovery in data set [2] (ILI of 30 IU/kg insulin plus 10 mM peptide, by 90 min) is given as 70-80%. Moreover, the “drop in blood glucose” value in data set [2] (ILI of 30 IU/kg insulin plus 20 mM peptide, by 30 min, remained for the remainder of the experiment) is given as 40%. Besides, the “MLC phosphorylation ratio (MLC to pMLC)” value in data set [3] (15 min) is recorded as “no significant changes”; in data set [3] (45 min), “elevated”; in data set [3] (90 min) it was “returning to basal levels”. In the data set with Caco-2 cell monolayers [1] (5 mM, FIG. 5), the “TEER change compared with peptide 640” value is “slower and less pronounced drop in TEER”. Also, in the data set with Caco-2 monolayers (5 mM), the “transport of paracellular marker 4 kDa fluorescent dextran (4FD)” value was “increased transport of a paracellular marker relative to the control”. Besides, in the data set with Caco-2 monolayers (10 mM), the “4 kDa dextran flux rates, comparison” value was 10 mM peptide 640 was equal to 10 mM peptide 250. For the same substance, the “4 kDa dextran flux rate compared to control” value with Caco-2 monolayers (20 mM) is reported as about 6 fold. The “increase of 70 kDa dextran flux” value in the data set on Caco-2 monolayers (20 mM) is reported as about 3 fold. Besides, in the data set with Caco-2 cell monolayers [5] (20 mM peptide 250 versus 10 mM peptide 640), the TEER response result is given as “very comparable response to 10 mM peptide 640”. Further, the “TEER after peptide removal” value in the data set with Caco-2 cell monolayers [5] is “rapid reversal of TEER depression”.

In the case of insulin, the “decrease in blood glucose” value in data set [2] (SC injection of 3 IU/kg insulin) is recorded as about 50%. For the same substance, in data set [2] (SC injection of insulin), the “time at which blood glucose began to recover” value was about 90 min and the “time of blood glucose nadir” value is on record as about 30 min. The “effect on blood sugar” value in data set [2] (intraluminal injection of 30 IU/kg insulin alone) is “no effect”.
